{"source": "PubChem BioAssay (NCI)", "assay_in_all_cases": "NCI tumour cell line growth inhibition, 48 h", "key": {"786-0 renal": {"tested_on": "786-0 renal"}, "A498 renal": {"tested_on": "A498 renal"}, "A549 NSCLC": {"tested_on": "A549 NSCLC"}, "ACHN renal": {"tested_on": "ACHN renal"}, "CAKI-1 renal": {"tested_on": "CAKI-1 renal"}, "CCRF-CEM leukemia": {"tested_on": "CCRF-CEM leukemia"}, "COLO 205 colon": {"tested_on": "COLO 205 colon"}, "DMS 114 small cell lung": {"tested_on": "DMS 114 small cell lung"}, "EKVX NSCLC": {"tested_on": "EKVX NSCLC"}, "HCC-2998 colon": {"tested_on": "HCC-2998 colon"}, "HCT-116 colon": {"tested_on": "HCT-116 colon"}, "HCT-15 colon": {"tested_on": "HCT-15 colon"}, "HOP-62 NSCLC": {"tested_on": "HOP-62 NSCLC"}, "HOP-92 NSCLC": {"tested_on": "HOP-92 NSCLC"}, "HT29 colon": {"tested_on": "HT29 colon"}, "IGROV1 ovarian": {"tested_on": "IGROV1 ovarian"}, "K-562 leukemia": {"tested_on": "K-562 leukemia"}, "KM12 colon": {"tested_on": "KM12 colon"}, "LOX IMVI melanoma": {"tested_on": "LOX IMVI melanoma"}, "LXFL 529 NSCLC": {"tested_on": "LXFL 529 NSCLC"}, "M14 melanoma": {"tested_on": "M14 melanoma"}, "MALME-3M melanoma": {"tested_on": "MALME-3M melanoma"}, "MOLT-4 leukemia": {"tested_on": "MOLT-4 leukemia"}, "NCI-H226 lung": {"tested_on": "NCI-H226 lung"}, "NCI-H23 lung": {"tested_on": "NCI-H23 lung"}, "NCI-H460 lung": {"tested_on": "NCI-H460 lung"}, "NCI-H522 lung": {"tested_on": "NCI-H522 lung"}, "OVCAR-3 ovarian": {"tested_on": "OVCAR-3 ovarian"}, "OVCAR-4 ovarian": {"tested_on": "OVCAR-4 ovarian"}, "OVCAR-5 ovarian": {"tested_on": "OVCAR-5 ovarian"}, "OVCAR-8 ovarian": {"tested_on": "OVCAR-8 ovarian"}, "RPMI-8226 leukemia": {"tested_on": "RPMI-8226 leukemia"}, "RXF 393 renal": {"tested_on": "RXF 393 renal"}, "SF-268 CNS": {"tested_on": "SF-268 CNS"}, "SF-295 CNS": {"tested_on": "SF-295 CNS"}, "SF-539 CNS": {"tested_on": "SF-539 CNS"}, "SK-MEL-2 melanoma": {"tested_on": "SK-MEL-2 melanoma"}, "SK-MEL-28 melanoma": {"tested_on": "SK-MEL-28 melanoma"}, "SK-MEL-5 melanoma": {"tested_on": "SK-MEL-5 melanoma"}, "SK-OV-3 ovarian": {"tested_on": "SK-OV-3 ovarian"}, "SN12C renal": {"tested_on": "SN12C renal"}, "SNB-19 CNS": {"tested_on": "SNB-19 CNS"}, "SNB-78 CNS": {"tested_on": "SNB-78 CNS"}, "SR leukemia": {"tested_on": "SR leukemia"}, "SW-620 colon": {"tested_on": "SW-620 colon"}, "U251 CNS": {"tested_on": "U251 CNS"}, "UACC-257 melanoma": {"tested_on": "UACC-257 melanoma"}, "UACC-62 melanoma": {"tested_on": "UACC-62 melanoma"}, "UO-31 renal": {"tested_on": "UO-31 renal"}}, "note": "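Protocol summary: plate cells (96-well), add compound at 5 concentrations, incubate 48 h, interpolate endpoints linearly. TGI denotes the concentration required for complete inhibition of growth.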"}
{"smiles": "O=C(Nc1cccc([N+](=O)[O-])c1)/C(=N\\NC(=O)c1ccncc1)c1nc2ccc([N+](=O)[O-])cc2[nH]c1=O", "values": [{"measurement": "TGI", "setting": "786-0 renal", "value": "> 100", "unit": "µM"}, {"measurement": "TGI", "setting": "A498 renal", "value": "> 100", "unit": "µM"}, {"measurement": "TGI", "setting": "A549 NSCLC", "value": "> 100", "unit": "µM"}, {"measurement": "TGI", "setting": "ACHN renal", "value": "> 100", "unit": "µM"}, {"measurement": "TGI", "setting": "CAKI-1 renal", "value": "> 100", "unit": "µM"}, {"measurement": "TGI", "setting": "CCRF-CEM leukemia", "value": "> 100", "unit": "µM"}, {"measurement": "TGI", "setting": "COLO 205 colon", "value": "> 100", "unit": "µM"}, {"measurement": "TGI", "setting": "DMS 114 small cell lung", "value": "> 100", "unit": "µM"}, {"measurement": "TGI", "setting": "EKVX NSCLC", "value": "> 100", "unit": "µM"}, {"measurement": "TGI", "setting": "HCC-2998 colon", "value": 93.8, "unit": "µM"}, {"measurement": "TGI", "setting": "HCT-116 colon", "value": "> 100", "unit": "µM"}, {"measurement": "TGI", "setting": "HCT-15 colon", "value": "> 100", "unit": "µM"}, {"measurement": "TGI", "setting": "HOP-62 NSCLC", "value": "> 100", "unit": "µM"}, {"measurement": "TGI", "setting": "HOP-92 NSCLC", "value": "> 100", "unit": "µM"}, {"measurement": "TGI", "setting": "HT29 colon", "value": "> 100", "unit": "µM"}, {"measurement": "TGI", "setting": "IGROV1 ovarian", "value": "> 100", "unit": "µM"}, {"measurement": "TGI", "setting": "K-562 leukemia", "value": "> 100", "unit": "µM"}, {"measurement": "TGI", "setting": "KM12 colon", "value": "> 100", "unit": "µM"}, {"measurement": "TGI", "setting": "LOX IMVI melanoma", "value": "> 100", "unit": "µM"}, {"measurement": "TGI", "setting": "LXFL 529 NSCLC", "value": "> 100", "unit": "µM"}, {"measurement": "TGI", "setting": "M14 melanoma", "value": "> 100", "unit": "µM"}, {"measurement": "TGI", "setting": "MALME-3M melanoma", "value": "> 100", "unit": "µM"}, {"measurement": "TGI", "setting": "MOLT-4 leukemia", "value": "> 100", "unit": "µM"}, {"measurement": "TGI", "setting": "NCI-H226 lung", "value": "> 100", "unit": "µM"}, {"measurement": "TGI", "setting": "NCI-H23 lung", "value": "> 100", "unit": "µM"}, {"measurement": "TGI", "setting": "NCI-H460 lung", "value": "> 100", "unit": "µM"}, {"measurement": "TGI", "setting": "NCI-H522 lung", "value": "> 100", "unit": "µM"}, {"measurement": "TGI", "setting": "OVCAR-3 ovarian", "value": "> 100", "unit": "µM"}, {"measurement": "TGI", "setting": "OVCAR-4 ovarian", "value": "> 100", "unit": "µM"}, {"measurement": "TGI", "setting": "OVCAR-5 ovarian", "value": "> 100", "unit": "µM"}, {"measurement": "TGI", "setting": "OVCAR-8 ovarian", "value": "> 100", "unit": "µM"}, {"measurement": "TGI", "setting": "RPMI-8226 leukemia", "value": "> 100", "unit": "µM"}, {"measurement": "TGI", "setting": "RXF 393 renal", "value": "> 100", "unit": "µM"}, {"measurement": "TGI", "setting": "SF-268 CNS", "value": "> 100", "unit": "µM"}, {"measurement": "TGI", "setting": "SF-295 CNS", "value": "> 100", "unit": "µM"}, {"measurement": "TGI", "setting": "SF-539 CNS", "value": "> 100", "unit": "µM"}, {"measurement": "TGI", "setting": "SK-MEL-2 melanoma", "value": "> 100", "unit": "µM"}, {"measurement": "TGI", "setting": "SK-MEL-28 melanoma", "value": "> 100", "unit": "µM"}, {"measurement": "TGI", "setting": "SK-MEL-5 melanoma", "value": "> 100", "unit": "µM"}, {"measurement": "TGI", "setting": "SK-OV-3 ovarian", "value": "> 100", "unit": "µM"}, {"measurement": "TGI", "setting": "SN12C renal", "value": "> 100", "unit": "µM"}, {"measurement": "TGI", "setting": "SNB-19 CNS", "value": "> 100", "unit": "µM"}, {"measurement": "TGI", "setting": "SNB-78 CNS", "value": "> 100", "unit": "µM"}, {"measurement": "TGI", "setting": "SR leukemia", "value": "> 100", "unit": "µM"}, {"measurement": "TGI", "setting": "SW-620 colon", "value": "> 100", "unit": "µM"}, {"measurement": "TGI", "setting": "U251 CNS", "value": "> 100", "unit": "µM"}, {"measurement": "TGI", "setting": "UACC-257 melanoma", "value": "> 100", "unit": "µM"}, {"measurement": "TGI", "setting": "UACC-62 melanoma", "value": "> 100", "unit": "µM"}, {"measurement": "TGI", "setting": "UO-31 renal", "value": "> 100", "unit": "µM"}]}
